Results as given in publication PMC12362796, “Bilirubin Targeting WNK1 to Alleviate NLRP3‐Mediated Neuroinflammation” (Advanced Science, 2025).

Legend:
[1] = tested on: WNK1 phosphorylation at Thr58; assay: Western blotting of WNK1 phosphorylation in cochlear nucleus; assay type: cell-based; conditions: mouse cochlear nuclei, 30 min
Experimental: To validate these findings, SH‐SY5Y cells were incubated in a serum‐free medium with bilirubin (6 µM) or an equivalent amount of DMSO as the control, followed by protein denaturation at different temperatures (Figure 1A).
C57BL/6 mice at postnatal day 10 (P10) were euthanized on ice, and their cochlear nuclei were dissected and incubated in artificial cerebrospinal fluid (ACSF), with or without 3 µM bilirubin, followed by rapid freezing in liquid nitrogen. The ACSF composition was 124 mM NaCl, 5 mM KCl, 1.2 mM KH2PO4, 1.3 mM MgCl2, 2.4 mM CaCl2, 24 mM NaHCO3, and 10 mM glucose (pH 7.4).
Cells or tissues were lysed by grinding in RIPA buffer (cat. no. PC101; Epizyme Biotech) supplemented with a protease inhibitor cocktail (cat. no. 5872S; Cell Signaling Technology) at 4 °C. The lysate was subsequently centrifuged at 16000 × g for 30 min at 4 °C and the resulting supernatant was collected. The total protein concentration was determined using the Pierce BCA Protein Assay Kit (cat. no. 23 225, Thermo Fisher Scientific). The samples were denatured in a Protein Sample Loading Buffer (cat. no. LT101; Epizyme Biotech) at 95 °C and subjected to SDS‐polyacrylamide gel electrophoresis. Following electrophoresis, the proteins were transferred onto a nitrocellulose membrane (cat. no. HATF00010; Millipore) using a transfer buffer composed of 25 mM Tris, 190 mM glycine, and 20% methanol. […]

WNK1 (191–491) = biological target: T1, WNK1 (191–491) (Homo sapiens, UniProt Q9H4A3); assay: MST, EGFP-tagged WNK1 truncation 191–491; assay type: binding; conditions: WNK1 191–491, 15 min, HEK293T lysates
T1 construct: different lengths of WNK1 truncations (1–491, 1–190, 191–491, 491–2382); expressed in transfected cells; host or cells: HEK293T
T1 sequence (Q9H4A3 191-491): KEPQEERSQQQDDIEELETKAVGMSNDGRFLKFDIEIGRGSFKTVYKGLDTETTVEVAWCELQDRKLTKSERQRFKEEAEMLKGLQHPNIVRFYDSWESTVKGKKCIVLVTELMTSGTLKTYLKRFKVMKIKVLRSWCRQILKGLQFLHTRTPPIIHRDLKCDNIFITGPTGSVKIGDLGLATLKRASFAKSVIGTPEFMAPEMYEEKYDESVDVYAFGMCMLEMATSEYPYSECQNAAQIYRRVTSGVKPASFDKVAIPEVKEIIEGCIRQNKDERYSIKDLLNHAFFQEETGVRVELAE
Text: (§1) To further validate these findings, we constructed GFP‐tagged fusion proteins with different lengths of WNK1 truncations (1–491, 1–190, 191–491, 491–2382) based on the WNK1 domains (Figure 3E) and analyzed their binding capacity with bilirubin using MST analysis.^[ [29] ^]
(§2) All WNK1 clones were derived from the original untagged hWNK1 cDNA (NM_018979), which was modified and subcloned into the pcDNA3.1, referred to as “full‐length WNK1” throughout this study. Truncated constructs, including 1–190aa, 191–491aa, 1–491aa, and 491–2382aa fragments, were generated by PCR using the full‐length template and subsequently ligated into linearized pcDNA3.1 vectors. WNK2 was obtained from Addgene Plasmid #24569, and WNK3 was obtained from Addgene Plasmid #81723. Both were subjected to base modifications and cloned into pcDNA3.1. The WNK4 clone was derived from hWNK4 cDNA (NM_032387.5), modified, and subcloned into the pCMV3‐C‐GFPSpark vector.
(§3) In HEK293T cells, proteins tagged with green fluorescent protein (GFP) were expressed. The cells were lysed using the M‐PER Mammalian Protein Extraction Reagent (cat. no. 78505, Thermo Scientific) supplemented with protease inhibitors. Lysates were centrifuged at 12000 × g for 15 min at 4 °C, and the supernatant containing proteins was diluted 10‐fold with 1x PBST. […]

[2] = Osmolarity of different bilirubin concentrations; assay type: physicochemical; conditions: low concentrations of bilirubin
Text: (§4) To further investigate the impact of bilirubin on WNK1 kinase activity, we generated hippocampal neuron‐specific Wnk1 knockout mice. Given that conventional Wnk1 knockout mice are embryonically lethal, we employed the CRISPR/Cas9 method to create mice carrying the floxed Wnk1 gene. Then we crossed Thy1‐Cre mice with Wnk1^flox/flox mice to generate hippocampal neuron‐specific Wnk1 knockout mice. We examined the effects of bilirubin on the phosphorylation of WNK1 downstream targets, Ste20‐related proline alanine‐rich kinase (SPAK), and oxidative stress‐responsive kinase 1 (OSR1), in the hippocampus of Wnk1^flox/flox and Wnk1^flox/flox,Thy1‐Cre mice. Upon bilirubin treatment, phosphorylation of OSR1 and SPAK was elevated in the hippocampus of Wnk1^flox/flox mice. […] These findings indicate that the effect of bilirubin on OSR1 and SPAK phosphorylation is WNK1‐dependent (Figure 4B). To rule out the potential effects of osmolarity on the phosphorylation of WNK1, OSR1, and SPAK, we measured the osmolarity of different bilirubin concentrations.

[3] = biological target: T2, point mutations of WNK1 (1–491) (Homo sapiens, UniProt Q9H4A3, T301A); assay: MST, EGFP-tagged point mutations of WNK1 (1–491); assay type: binding; conditions: WNK1-N T301A
T2 construct: EGFP‐tagged point mutations of WNK1 (1–491) (15 min) in lysates; expressed in transfected cells; host or cells: HEK293T
T2 sequence (Q9H4A3 1-491 T301A): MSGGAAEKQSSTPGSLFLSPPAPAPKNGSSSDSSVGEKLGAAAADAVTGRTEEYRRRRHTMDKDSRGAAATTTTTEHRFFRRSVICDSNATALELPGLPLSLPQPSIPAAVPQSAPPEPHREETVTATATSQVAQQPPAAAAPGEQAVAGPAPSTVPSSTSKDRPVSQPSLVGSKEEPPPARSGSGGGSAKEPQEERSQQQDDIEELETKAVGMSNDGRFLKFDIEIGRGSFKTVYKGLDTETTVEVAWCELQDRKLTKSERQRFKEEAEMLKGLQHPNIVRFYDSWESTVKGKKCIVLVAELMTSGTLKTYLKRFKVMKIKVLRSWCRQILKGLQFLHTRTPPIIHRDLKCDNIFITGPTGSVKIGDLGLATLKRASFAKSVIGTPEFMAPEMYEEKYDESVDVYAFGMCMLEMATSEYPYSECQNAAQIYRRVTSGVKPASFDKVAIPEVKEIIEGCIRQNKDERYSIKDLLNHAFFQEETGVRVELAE
Text: (§5) Molecular docking identified several crucial amino acid residues within binding site 1 of the kinase domain for the binding of WNK1 and bilirubin. These residues included Thr301 (T301), Met304 (M304), Lys351 (K351), and Phe356 (F356) (Figure 3C). To investigate this further, we constructed WNK1‐N mutants by replacing these residues with alanine (A). […] This finding highlights the critical role of these residues in bilirubin binding.
(§6) In HEK293T cells, proteins tagged with green fluorescent protein (GFP) were expressed. The cells were lysed using the M‐PER Mammalian Protein Extraction Reagent (cat. no. 78505, Thermo Scientific) supplemented with protease inhibitors. Lysates were centrifuged at 12000 × g for 15 min at 4 °C, and the supernatant containing proteins was diluted 10‐fold with 1x PBST. Protein fluorescence intensity and solubility were assessed using capillary scanning at 60% LED power.
(§7) For the binding assay, the proteins were mixed with ligands and incubated for 15 min at room temperature before being loaded into Monolith NT.115 Capillaries or NT.115 Premium Capillaries (NanoTemper Technologies, MO‐K022 and MO‐K025). MST measurements were performed on a Monolith NT.115 instrument (NanoTemper Technologies) at 25 °C. Instrument parameters included no more than 80% excitation power and a medium MST power. Data analysis was conducted using the MO. Affinity Analysis software (NanoTemper Technologies).

[4] = biological target: T3, point mutations of WNK1 (1–491) (Homo sapiens, UniProt Q9H4A3, M304A); assay: MST, EGFP-tagged point mutations of WNK1 (1–491); assay type: binding; conditions: WNK1-N M304A
T3 construct: EGFP‐tagged point mutations of WNK1 (1–491) (15 min) in lysates; expressed in transfected cells; host or cells: HEK293T
T3 sequence (Q9H4A3 1-491 M304A): as the sequence (Q9H4A3 1-491 T301A) above, with A301T, M304A counted along it
Text: as §5, §6, §7

[5] = biological target: T4, point mutations of WNK1 (1–491) (Homo sapiens, UniProt Q9H4A3, F356A); assay: MST, EGFP-tagged point mutations of WNK1 (1–491); assay type: binding; conditions: WNK1-N F356A
T4 construct: EGFP‐tagged point mutations of WNK1 (1–491) (15 min) in lysates; expressed in transfected cells; host or cells: HEK293T
T4 sequence (Q9H4A3 1-491 F356A): as the sequence (Q9H4A3 1-491 T301A) above, with A301T, F356A counted along it
Text: as §5, §6, §7

[6] = tested on: OSR1 and SPAK phosphorylation; assay: Western blotting of OSR1 and SPAK phosphorylation in hippocampus; assay type: cell-based, mouse
Text: as §4
Cells or tissues were lysed by grinding in RIPA buffer (cat. no. PC101; Epizyme Biotech) supplemented with a protease inhibitor cocktail (cat. no. 5872S; Cell Signaling Technology) at 4 °C. […] The total protein concentration was determined using the Pierce BCA Protein Assay Kit (cat. no. 23 225, Thermo Fisher Scientific). […]

WNK1 (1–491) = biological target: T5, WNK1 (1–491) (Homo sapiens, UniProt Q9H4A3); assay: MST, EGFP-tagged WNK1 truncation 1–491; assay type: binding; conditions: WNK1 1–491, 15 min, HEK293T lysates
T5 construct: different lengths of WNK1 truncations (1–491, 1–190, 191–491, 491–2382); expressed in transfected cells; host or cells: HEK293T
T5 sequence (Q9H4A3 1-491): as the sequence (Q9H4A3 1-491 T301A) above, with A301T counted along it
Text: as §1, §2, §3

- Kd (WNK1 (191–491)): 28 nM
- osmolarity [2]: didn't change the osmolarity
- binding to T301A mutant [3]: unable to bind
- binding to M304A mutant [4]: reduced binding affinity
- binding to F356A mutant [5]: reduced binding affinity
- Kd (WNK1 (1–491)): 315 nM
Structure (SMILES): C=CC1=C(C)/C(=C/c2[nH]c(Cc3[nH]c(/C=C4\NC(=O)C(C)=C4C=C)c(C)c3CCC(=O)O)c(CCC(=O)O)c2C)NC1=O [bilirubin, Bilirubin]
- WNK1 phosphorylation at Thr58 (Thr60 in humans) [1]: substantial reduction
- phosphorylation of OSR1 and SPAK ([6]; hippocampus of Wnk1flox/flox mice): elevated
- phosphorylation of OSR1 and SPAK ([6]; hippocampus of Wnk1flox/flox,Thy1-Cre mice): minimal impact
